Reference: article PMC4325551, “Inhibition of Rat 5α-Reductase Activity and Testosterone-Induced Sebum Synthesis in Hamster Sebocytes by an Extract of Quercus acutissima Cortex” (Evidence-based Complementary and Alternative Medicine : eCAM, 2015)

Key:
[1] = biological target: T1, rat liver microsomal 5α-reductase (Rattus norvegicus, UniProt P24008); assay: 5α-reductase assay using rat liver microsomes (testosterone metabolism, HPLC and TLC); type: biochemical; settings: for inhibition of 5α-reductase activity: at 10 and 100 μmol/L; for Inhibitory activity on 5α-reductase (% of control) / IC50: testosterone 3.5 μmol/L, 30 min, rat liver microsomes 40 μg/mL, HPLC; for Inhibitory activity on 5α-reductase (% of control): mean ± SEM, N = 3; for effect on 5α-reductase activity: examined at 0.1, 1, 10, and 100 μmol/L
T1 construct: The reaction was started with the addition of liver microsomes (20 μg protein); from tissue; host or cells: liver microsomes of male Sprague–Dawley rats
T1 sequence (P24008 1-259): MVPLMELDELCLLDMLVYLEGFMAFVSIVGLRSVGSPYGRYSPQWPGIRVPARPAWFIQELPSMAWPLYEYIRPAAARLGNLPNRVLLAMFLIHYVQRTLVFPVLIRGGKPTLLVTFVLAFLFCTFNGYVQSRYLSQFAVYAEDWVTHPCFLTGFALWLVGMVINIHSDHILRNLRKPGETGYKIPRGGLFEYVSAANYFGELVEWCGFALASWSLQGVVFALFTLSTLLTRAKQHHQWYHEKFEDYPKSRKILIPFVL
Experimental: Rat liver microsomes were prepared by the method of Lee et al.. Male Sprague–Dawley rats (body weight, 300 to 320 g; Clea Japan, Tokyo, Japan) were fasted overnight to decrease the concentration of liver glycogen and then sacrificed. The liver was excised and washed in ice-cold homogenizing buffer containing 0.32 mol/L sucrose, 1 mmol/L dithiothreitol (Wako Pure Chemical Industries), and 20 mmol/L potassium phosphate, pH 6.5. The following procedures were all carried out at 4°C. The tissue was minced with a pair of scissors and then homogenized in homogenizing buffer using a Potter-Elvehjem grinder. The homogenate was then centrifuged at 10 000 g for 10 min. The resulting pellet was washed with two pellet volumes of homogenizing buffer and centrifuged again. The supernatants from the two centrifugations were combined and further centrifuged at 105 000 g for 1 h. The resulting pellet (microsomes) was suspended in homogenizing buffer and centrifuged again. The microsomes were resuspended in homogenizing buffer. The microsome suspension was divided into small aliquots and stored at −80°C. The microsomes were diluted with 40 mmol/L potassium phosphate, pH 6.5, immediately before use. Unlike human liver, rat liver microsomes have the 5α-R1 but not the 5α-R2 isoform.
Briefly, the reaction solution was preincubated with or without a test sample in 1 mmol/L dithiothreitol, 40 mmol/L potassium phosphate, pH 6.5, 100 μmol/L NADPH (Oriental Yeast, Tokyo, Japan), and 3.5 μmol/L testosterone (Wako Pure Chemical Industries) in a final volume of 0.5 mL for 20 min at room temperature. The reaction was started with the addition of liver microsomes (20 μg protein). After incubation at 37°C for 30 min, the reaction solution was extracted with 2 mL ethyl acetate. The ethyl acetate phase (upper phase) was transferred to a tube and evaporated using a centrifugal concentrator (Tomy Seiko, Tokyo, Japan). Testosterone and the metabolites were measured by two chromatography methods, HPLC (Shimadzu, Kyoto, Japan) and TLC.
The residue was dissolved in acetonitrile and analyzed using the HPLC system. The reverse-phase HPLC analysis was performed on a C18 column (3.0 × 150 mm, GL Science, Japan) at a column oven temperature of 50°C and UV detection of 240 nm. The isocratic mobile phase of acetonitrile/water (50 : 50, v/v) was flowed at 0.4 mL/min through the column.
To detect the steroids by TLC, the residue containing steroids was taken up in ethanol and chromatographed on a TLC plate (Silica gel 60 F254, Merck, Darmstadt, Germany), using ethyl acetate-hexane (1 : 1, v/v) as the developing solvent system at room temperature. Testosterone, (Tokyo Chemical Industry Co., Tokyo, Japan) and 5α-androstane-3α,17β-diol (Sigma-Aldrich) were applied to TLC as androgen standards. The plate was exposed to 10% sulfuric acid using an atomizer and then heated on a hot plate. The fluorescent signals were visualized by irradiation of UV light at 302 nm using a ChemiDoc XRS Plus (BIO-RAD, Hercules, CA).

[2] = system: primary hamster sebocytes (Ha-SE); assay: cell cytotoxicity (XTT) in undifferentiated hamster sebocytes; settings: 0.2% triton X-100, 24 h in the presence of EGF
Experimental: Four Figures and Two Tables
Hamster-derived sebaceous gland cells (Ha-SE) were precultured until confluent in the presence of 10 ng/mL epidermal growth factor (EGF), and further cultured with 10, 30 […]
vehicle in the presence of EGF. Twenty four hours later, cell cytotoxicity was measured […]
Fig. S2. Bioconversion of exogenous dihydrotestosterone to 5α-androstane-3,17-diol by rat liver microsomal enzymes […]
min in the presence or absence of rat liver microsomes (40 μg/mL) and the co-factors.
The metabolites were extracted with ethyl acetate after incubation, and analyzed by TLC. All androgen standards were applied at 0.1 μg/μL/spot. T.: testosterone, DHT: dihydrotestosterone, A.diol: 5α-androstane-3α,17β-diol

O=C(O[C@H]1[C@@H]2OC(=O)c3cc(O)c(O)c(O)c3-c3c(cc(O)c(O)c3O)C(=O)OC[C@H]2OC(O)[C@@H]1OC(=O)c1cc(O)c(O)c(O)c1)c1cc(O)c(O)c(O)c1 (stereo partly drawn) [1-Desgalloyl eugeniin, 1-desgalloyl eugeniin]
inhibition of 5α-reductase activity [1]: more than 50%
Inhibitory activity on 5α-reductase (% of control) ([1]; test sample 0.1 μmol/L): 4.6 ± 0.2 % of control
Inhibitory activity on 5α-reductase (% of control) ([1]; test sample 1 μmol/L): 9.2 ± 1.6 % of control
Inhibitory activity on 5α-reductase (% of control) ([1]; test sample 10 μmol/L): 52.5 ± 2.4 % of control
Inhibitory activity on 5α-reductase (% of control) ([1]; test sample 100 μmol/L): 107.9 ± 0.9 % of control
IC50 [1]: 12.6 µM

O=C1OC[C@H]2OC(=O)c3cc(O)c(O)c(O)c3-c3c(O)c(O)c(O)c4c3C(=O)O[C@H]([C@H]3OC(=O)c5c-4c(O)c(O)c(O)c5[C@H]3O)[C@@H]2OC(=O)c2cc(O)c(O)c(O)c2-c2c1cc(O)c(O)c2O [Castalagin, castalagin]
inhibition of 5α-reductase activity [1]: more than 50%
Inhibitory activity on 5α-reductase (% of control) ([1]; test sample 0.1 μmol/L): 4.9 ± 0.5 % of control
Inhibitory activity on 5α-reductase (% of control) ([1]; test sample 1 μmol/L): 6.3 ± 1.2 % of control
Inhibitory activity on 5α-reductase (% of control) ([1]; test sample 10 μmol/L): 70.7 ± 3.2 % of control
Inhibitory activity on 5α-reductase (% of control) ([1]; test sample 100 μmol/L): 113.3 ± 7.6 % of control
IC50 [1]: 8 µM

COC(=O)c1cc(O)c(O)c(O)c1 [methyl gallate]
effect on 5α-reductase activity [1]: did not show any effect

Oc1cc(O)c2c(c1)O[C@H](c1ccc(O)c(O)c1)[C@@H](O)C2 [(+)-catechin]
effect on 5α-reductase activity [1]: did not show any effect

O=C(OC[C@H]1OC(OC(=O)c2cc(O)c(O)c(O)c2)[C@H](OC(=O)c2cc(O)c(O)c(O)c2)[C@@H](OC(=O)c2cc(O)c(O)c(O)c2)[C@@H]1O)c1cc(O)c(O)c(O)c1 (stereo partly drawn) [Tetragalloyl glucose, 1,2,3,6-tetra-O-galloyl glucose]
inhibition of 5α-reductase activity [1]: more than 50%
Inhibitory activity on 5α-reductase (% of control) ([1]; test sample 0.1 μmol/L): 3.3 ± 0.5 % of control
Inhibitory activity on 5α-reductase (% of control) ([1]; test sample 1 μmol/L): 18.7 ± 0.4 % of control
Inhibitory activity on 5α-reductase (% of control) ([1]; test sample 10 μmol/L): 63.2 ± 3.0 % of control
Inhibitory activity on 5α-reductase (% of control) ([1]; test sample 100 μmol/L): 102.8 ± 1.2 % of control
IC50 [1]: 8.1 µM

stenophyllanin C
inhibition of 5α-reductase activity [1]: more than 50%
Inhibitory activity on 5α-reductase (% of control) ([1]; test sample 0.1 μmol/L): 5.6 ± 0.6 % of control
Inhibitory activity on 5α-reductase (% of control) ([1]; test sample 1 μmol/L): 4.6 ± 0.5 % of control
Inhibitory activity on 5α-reductase (% of control) ([1]; test sample 10 μmol/L): 63.1 ± 0.4 % of control
Inhibitory activity on 5α-reductase (% of control) ([1]; test sample 100 μmol/L): 102.3 ± 2.2 % of control
IC50 [1]: 7.2 µM

Oc1cc(O)c2c(c1)O[C@H](c1cc(O)c(O)c(O)c1)[C@@H](O)C2 [(+)-gallocatechin, (+)-Gallocatechin]
effect on 5α-reductase activity [1]: did not show any effect

triton X-100 [reference compound]
cytotoxicity [2]: significant cytotoxicity

O=C(OC[C@H]1OC(O)[C@@](O)(COC(=O)c2cc(O)c(O)c(O)c2)[C@@H]1O)c1cc(O)c(O)c(O)c1 (stereo partly drawn) [Hamamelitannin, 2′,5-di-O-galloyl hamamelose]
effect on 5α-reductase activity [1]: did not show any effect

O=C1c2c(O)cc(O)cc2O[C@H](c2ccc(O)c(O)c2)[C@H]1O [(+)-taxifolin]
effect on 5α-reductase activity [1]: did not show any effect

O=C(O[C@@H]1Cc2c(O)cc(O)cc2O[C@@H]1c1cc(O)c(O)c(O)c1)c1cc(O)c(O)c(O)c1 [(−)-Epigallocatechin gallate, (−)-epigallocatechin gallate]
inhibition of 5α-reductase activity [1]: more than 50%
Inhibitory activity on 5α-reductase (% of control) ([1]; test sample 0.1 μmol/L): 3.7 ± 0.1 % of control
Inhibitory activity on 5α-reductase (% of control) ([1]; test sample 1 μmol/L): 4.4 ± 0.4 % of control
Inhibitory activity on 5α-reductase (% of control) ([1]; test sample 10 μmol/L): 5.3 ± 0.3 % of control
Inhibitory activity on 5α-reductase (% of control) ([1]; test sample 100 μmol/L): 58.6 ± 2.7 % of control
IC50 [1]: 10 to 100 µM

O=C(O[C@@H]1COC(=O)c2cc(O)c(O)c(O)c2-c2c(cc(O)c(O)c2O)C(=O)O[C@H]1[C@@H]1OC(=O)c2cc(O)c(O)c(O)c2-c2c(O)c(O)c(O)c3c2C(=O)O[C@H]1[C@@H]3O)c1cc(O)c(O)c(O)c1 [Casuarinin, casuarinin]
inhibition of 5α-reductase activity [1]: more than 50%
Inhibitory activity on 5α-reductase (% of control) ([1]; test sample 0.1 μmol/L): 6.4 ± 1.4 % of control
Inhibitory activity on 5α-reductase (% of control) ([1]; test sample 1 μmol/L): 10.8 ± 0.7 % of control
Inhibitory activity on 5α-reductase (% of control) ([1]; test sample 10 μmol/L): 59.0 ± 2.0 % of control
Inhibitory activity on 5α-reductase (% of control) ([1]; test sample 100 μmol/L): 110.1 ± 0.5 % of control
IC50 [1]: 10.5 µM

O=C(O[C@@H]1O[C@@H]2COC(=O)c3cc(O)c(O)c(O)c3-c3c(cc(O)c(O)c3O)C(=O)O[C@H]2[C@H](OC(=O)c2cc(O)c(O)c(O)c2)[C@H]1OC(=O)c1cc(O)c(O)c(O)c1)c1cc(O)c(O)c(O)c1 [Eugeniin, eugeniin]
inhibition of 5α-reductase activity [1]: more than 50%
Inhibitory activity on 5α-reductase (% of control) ([1]; test sample 0.1 μmol/L): 4.2 ± 1.0 % of control
Inhibitory activity on 5α-reductase (% of control) ([1]; test sample 1 μmol/L): 13.9 ± 0.5 % of control
Inhibitory activity on 5α-reductase (% of control) ([1]; test sample 10 μmol/L): 62.5 ± 0.6 % of control
Inhibitory activity on 5α-reductase (% of control) ([1]; test sample 100 μmol/L): 114.6 ± 0.6 % of control
IC50 [1]: 10.9 µM

COc1cc2ccc(=O)oc2c(O[C@@H]2O[C@H](CO)[C@@H](O)[C@H](O)[C@H]2O)c1O [fraxin]
effect on 5α-reductase activity [1]: did not show any effect

O=C(O[C@@H]1Cc2c(O)cc(O)cc2O[C@@H]1c1ccc(O)c(O)c1)c1cc(O)c(O)c(O)c1 [(−)-Epicatechin gallate, (−)-epicatechin gallate]
inhibition of 5α-reductase activity [1]: more than 50%
Inhibitory activity on 5α-reductase (% of control) ([1]; test sample 0.1 μmol/L): 4.6 ± 0.2 % of control
Inhibitory activity on 5α-reductase (% of control) ([1]; test sample 1 μmol/L): 4.9 ± 0.2 % of control
Inhibitory activity on 5α-reductase (% of control) ([1]; test sample 10 μmol/L): 5.9 ± 0.3 % of control
Inhibitory activity on 5α-reductase (% of control) ([1]; test sample 100 μmol/L): 69.4 ± 1.2 % of control
IC50 [1]: 10 to 100 µM

O=C(O)c1cc(O)c(O)c(O)c1 [gallic acid, Gallic acid]
effect on 5α-reductase activity [1]: did not show any effect

Oc1cc(O)c2c(c1)O[C@@H](c1cc(O)c(O)c(O)c1)[C@H](O)C2 [(−)-gallocatechin]
effect on 5α-reductase activity [1]: did not show any effect
